Our source for the TGI values is PubChem BioAssay (NCI).

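Each compound was tested at five concentrations against cells in 96-well plates for 48 hours. The concentration for full growth arrest is given as TGI.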 Where only a bound is given, the exact number is not on record here.

The test system of the first assay is MCF7 breast. As to the kind of experiment: NCI tumour cell line growth inhibition, 48 h.
As for `CC(=O)OC1CC(OC2C(O)CC(OC3C(O)CC(OC4CCC5(C)C(CCC6C5CC(O)C5(C)C(C7=CC(=O)OC7)CCC65O)C4)OC3C)OC2C)OC(C)C1OC1OC(CO)C(O)C(O)C1O` (stereo not given), the TGI is 0.431 µM.

Take `O=[N+]([O-])c1cccc(-c2csc(NNC3=NC/C(=C/c4ccc5c(c4)OCO5)S3)n2)c1`: the TGI was > 100 µM.

Another assay has as its system OVCAR-5 ovarian. In words: NCI tumour cell line growth inhibition, 48 h.
`COc1cc(C(=O)N(C(=S)OCc2ccccn2)c2ccccc2)cc(OC)c1OC`: the TGI was > 100 µM.

Consider `CC(=O)OC1CC(OC2C(O)CC(OC3C(O)CC(OC4CCC5(C)C(CCC6C5CC(O)C5(C)C(C7=CC(=O)OC7)CCC65O)C4)OC3C)OC2C)OC(C)C1OC1OC(CO)C(O)C(O)C1O` (stereo not given), for which the TGI was 0.222 µM.

In the case of `O=[N+]([O-])c1cccc(-c2csc(NNC3=NC/C(=C/c4ccc5c(c4)OCO5)S3)n2)c1`, the TGI was > 100 µM.

The subject of a further assay is RXF 393 renal. In words: NCI tumour cell line growth inhibition, 48 h.
Consider `COc1cc(C(=O)N(C(=S)OCc2ccccn2)c2ccccc2)cc(OC)c1OC`, for which the TGI was > 100 µM.

For `[N-]=[N+]=NC[C@H]1OCO[C@H](CN=[N+]=[N-])[C@@H](OCCOCCCl)[C@@H]1OCCOCCCl`, the TGI is > 100 µM.

The molecule `O=[N+]([O-])c1cccc(-c2csc(NNC3=NC/C(=C/c4ccc5c(c4)OCO5)S3)n2)c1` had a TGI of 47.4 µM.

Another assay deals with TK-10 renal. As to the kind of experiment: NCI tumour cell line growth inhibition, 48 h.
Consider `COc1cc(C(=O)N(C(=S)OCc2ccccn2)c2ccccc2)cc(OC)c1OC`, for which the TGI was > 100 µM.

Regarding `[N-]=[N+]=NC[C@H]1OCO[C@H](CN=[N+]=[N-])[C@@H](OCCOCCCl)[C@@H]1OCCOCCCl`, the TGI was > 100 µM.

The molecule `CC(=O)OC1CC(OC2C(O)CC(OC3C(O)CC(OC4CCC5(C)C(CCC6C5CC(O)C5(C)C(C7=CC(=O)OC7)CCC65O)C4)OC3C)OC2C)OC(C)C1OC1OC(CO)C(O)C(O)C1O` (stereo not given) showed a TGI of 0.235 µM.

The molecule `O=[N+]([O-])c1cccc(-c2csc(NNC3=NC/C(=C/c4ccc5c(c4)OCO5)S3)n2)c1` came in with a TGI of 81.6 µM.

A further assay concerns IGROV1 ovarian. As to the kind of experiment: NCI tumour cell line growth inhibition, 48 h.
In the case of `COc1cc(C(=O)N(C(=S)OCc2ccccn2)c2ccccc2)cc(OC)c1OC`, the TGI is 79.6 µM.

On to `[N-]=[N+]=NC[C@H]1OCO[C@H](CN=[N+]=[N-])[C@@H](OCCOCCCl)[C@@H]1OCCOCCCl`, for which the TGI was > 100 µM.

`CC(=O)OC1CC(OC2C(O)CC(OC3C(O)CC(OC4CCC5(C)C(CCC6C5CC(O)C5(C)C(C7=CC(=O)OC7)CCC65O)C4)OC3C)OC2C)OC(C)C1OC1OC(CO)C(O)C(O)C1O` (stereo not given) came in with a TGI of 1.11 µM.

Molecule `O=[N+]([O-])c1cccc(-c2csc(NNC3=NC/C(=C/c4ccc5c(c4)OCO5)S3)n2)c1` registered a TGI of 47.4 µM.

A further assay has as its system T-47D breast. As to the kind of experiment: NCI tumour cell line growth inhibition, 48 h.
With `COc1cc(C(=O)N(C(=S)OCc2ccccn2)c2ccccc2)cc(OC)c1OC`, the TGI is > 100 µM.

Consider `[N-]=[N+]=NC[C@H]1OCO[C@H](CN=[N+]=[N-])[C@@H](OCCOCCCl)[C@@H]1OCCOCCCl`, for which the TGI was > 100 µM.

Consider `CC(=O)OC1CC(OC2C(O)CC(OC3C(O)CC(OC4CCC5(C)C(CCC6C5CC(O)C5(C)C(C7=CC(=O)OC7)CCC65O)C4)OC3C)OC2C)OC(C)C1OC1OC(CO)C(O)C(O)C1O` (stereo not given), for which the TGI came out at 0.633 µM.

As for `O=[N+]([O-])c1cccc(-c2csc(NNC3=NC/C(=C/c4ccc5c(c4)OCO5)S3)n2)c1`, the TGI is > 100 µM.

The test system of the next assay is NCI-H460 lung. In words: NCI tumour cell line growth inhibition, 48 h.
`COc1cc(C(=O)N(C(=S)OCc2ccccn2)c2ccccc2)cc(OC)c1OC`: the TGI is > 100 µM.

Regarding `[N-]=[N+]=NC[C@H]1OCO[C@H](CN=[N+]=[N-])[C@@H](OCCOCCCl)[C@@H]1OCCOCCCl`, the TGI was > 100 µM.

For the molecule `CC(=O)OC1CC(OC2C(O)CC(OC3C(O)CC(OC4CCC5(C)C(CCC6C5CC(O)C5(C)C(C7=CC(=O)OC7)CCC65O)C4)OC3C)OC2C)OC(C)C1OC1OC(CO)C(O)C(O)C1O` (stereo not given), the TGI amounted to 0.0678 µM.

For `O=[N+]([O-])c1cccc(-c2csc(NNC3=NC/C(=C/c4ccc5c(c4)OCO5)S3)n2)c1`, the TGI is > 100 µM.

Another assay has as its system BT-549 breast. As to the kind of experiment: NCI tumour cell line growth inhibition, 48 h.
Turning to `COc1cc(C(=O)N(C(=S)OCc2ccccn2)c2ccccc2)cc(OC)c1OC`, the TGI is > 100 µM.

Regarding `[N-]=[N+]=NC[C@H]1OCO[C@H](CN=[N+]=[N-])[C@@H](OCCOCCCl)[C@@H]1OCCOCCCl`, the TGI was > 100 µM.

The molecule `CC(=O)OC1CC(OC2C(O)CC(OC3C(O)CC(OC4CCC5(C)C(CCC6C5CC(O)C5(C)C(C7=CC(=O)OC7)CCC65O)C4)OC3C)OC2C)OC(C)C1OC1OC(CO)C(O)C(O)C1O` (stereo not given) displayed a TGI of 0.167 µM.

In the case of `O=[N+]([O-])c1cccc(-c2csc(NNC3=NC/C(=C/c4ccc5c(c4)OCO5)S3)n2)c1`, the TGI is > 100 µM.

The next assay has as its system K-562 leukemia. In words: NCI tumour cell line growth inhibition, 48 h.
Take `COc1cc(C(=O)N(C(=S)OCc2ccccn2)c2ccccc2)cc(OC)c1OC`: the TGI is > 100 µM.

In the case of `[N-]=[N+]=NC[C@H]1OCO[C@H](CN=[N+]=[N-])[C@@H](OCCOCCCl)[C@@H]1OCCOCCCl`, the TGI was > 100 µM.

`CC(=O)OC1CC(OC2C(O)CC(OC3C(O)CC(OC4CCC5(C)C(CCC6C5CC(O)C5(C)C(C7=CC(=O)OC7)CCC65O)C4)OC3C)OC2C)OC(C)C1OC1OC(CO)C(O)C(O)C1O` (stereo not given): the TGI was > 100 µM.

In the case of `O=[N+]([O-])c1cccc(-c2csc(NNC3=NC/C(=C/c4ccc5c(c4)OCO5)S3)n2)c1`, the TGI was > 100 µM.

The next assay concerns A549 NSCLC. As to the kind of experiment: NCI tumour cell line growth inhibition, 48 h.
For the molecule `[N-]=[N+]=NC[C@H]1OCO[C@H](CN=[N+]=[N-])[C@@H](OCCOCCCl)[C@@H]1OCCOCCCl`, the TGI is > 100 µM.

`CC(=O)OC1CC(OC2C(O)CC(OC3C(O)CC(OC4CCC5(C)C(CCC6C5CC(O)C5(C)C(C7=CC(=O)OC7)CCC65O)C4)OC3C)OC2C)OC(C)C1OC1OC(CO)C(O)C(O)C1O` (stereo not given) registered a TGI of 0.0399 µM.

For the molecule `O=[N+]([O-])c1cccc(-c2csc(NNC3=NC/C(=C/c4ccc5c(c4)OCO5)S3)n2)c1`, the TGI is > 100 µM.

The test system of another assay is HOP-92 NSCLC. As to the kind of experiment: NCI tumour cell line growth inhibition, 48 h.
The molecule `CC(=O)OC1CC(OC2C(O)CC(OC3C(O)CC(OC4CCC5(C)C(CCC6C5CC(O)C5(C)C(C7=CC(=O)OC7)CCC65O)C4)OC3C)OC2C)OC(C)C1OC1OC(CO)C(O)C(O)C1O` (stereo not given) displayed a TGI of 0.517 µM.

Molecule `O=[N+]([O-])c1cccc(-c2csc(NNC3=NC/C(=C/c4ccc5c(c4)OCO5)S3)n2)c1` had a TGI of 43.7 µM.

Another assay deals with HS 578T breast. In words: NCI tumour cell line growth inhibition, 48 h.
Take `COc1cc(C(=O)N(C(=S)OCc2ccccn2)c2ccccc2)cc(OC)c1OC`: the TGI was > 100 µM.

Regarding `[N-]=[N+]=NC[C@H]1OCO[C@H](CN=[N+]=[N-])[C@@H](OCCOCCCl)[C@@H]1OCCOCCCl`, the TGI is > 100 µM.

`CC(=O)OC1CC(OC2C(O)CC(OC3C(O)CC(OC4CCC5(C)C(CCC6C5CC(O)C5(C)C(C7=CC(=O)OC7)CCC65O)C4)OC3C)OC2C)OC(C)C1OC1OC(CO)C(O)C(O)C1O` (stereo not given) showed a TGI of 0.525 µM.

In the case of `O=[N+]([O-])c1cccc(-c2csc(NNC3=NC/C(=C/c4ccc5c(c4)OCO5)S3)n2)c1`, the TGI came to 69.7 µM.

For a further assay, the system named is MALME-3M melanoma. As to the kind of experiment: NCI tumour cell line growth inhibition, 48 h.
`COc1cc(C(=O)N(C(=S)OCc2ccccn2)c2ccccc2)cc(OC)c1OC` showed a TGI of 62 µM.

Regarding `[N-]=[N+]=NC[C@H]1OCO[C@H](CN=[N+]=[N-])[C@@H](OCCOCCCl)[C@@H]1OCCOCCCl`, the TGI was > 100 µM.

`CC(=O)OC1CC(OC2C(O)CC(OC3C(O)CC(OC4CCC5(C)C(CCC6C5CC(O)C5(C)C(C7=CC(=O)OC7)CCC65O)C4)OC3C)OC2C)OC(C)C1OC1OC(CO)C(O)C(O)C1O` (stereo not given) returned a TGI of 0.249 µM.

The test system of another assay is SNB-19 CNS. As to the kind of experiment: NCI tumour cell line growth inhibition, 48 h.
Regarding `COc1cc(C(=O)N(C(=S)OCc2ccccn2)c2ccccc2)cc(OC)c1OC`, the TGI was > 100 µM.

As for `[N-]=[N+]=NC[C@H]1OCO[C@H](CN=[N+]=[N-])[C@@H](OCCOCCCl)[C@@H]1OCCOCCCl`, the TGI is > 100 µM.

`CC(=O)OC1CC(OC2C(O)CC(OC3C(O)CC(OC4CCC5(C)C(CCC6C5CC(O)C5(C)C(C7=CC(=O)OC7)CCC65O)C4)OC3C)OC2C)OC(C)C1OC1OC(CO)C(O)C(O)C1O` (stereo not given): the TGI worked out at 0.957 µM.

`O=[N+]([O-])c1cccc(-c2csc(NNC3=NC/C(=C/c4ccc5c(c4)OCO5)S3)n2)c1` displayed a TGI of 64.8 µM.

Another assay deals with NCI-H522 lung. As to the kind of experiment: NCI tumour cell line growth inhibition, 48 h.
Regarding `[N-]=[N+]=NC[C@H]1OCO[C@H](CN=[N+]=[N-])[C@@H](OCCOCCCl)[C@@H]1OCCOCCCl`, the TGI was > 100 µM.

As to `CC(=O)OC1CC(OC2C(O)CC(OC3C(O)CC(OC4CCC5(C)C(CCC6C5CC(O)C5(C)C(C7=CC(=O)OC7)CCC65O)C4)OC3C)OC2C)OC(C)C1OC1OC(CO)C(O)C(O)C1O` (stereo not given), the TGI was found to be 0.114 µM.

Take `O=[N+]([O-])c1cccc(-c2csc(NNC3=NC/C(=C/c4ccc5c(c4)OCO5)S3)n2)c1`: the TGI was found to be 42.9 µM.

In the next assay the test system is KM12 colon. In words: NCI tumour cell line growth inhibition, 48 h.
Regarding `COc1cc(C(=O)N(C(=S)OCc2ccccn2)c2ccccc2)cc(OC)c1OC`, the TGI is > 100 µM.

Turning to `[N-]=[N+]=NC[C@H]1OCO[C@H](CN=[N+]=[N-])[C@@H](OCCOCCCl)[C@@H]1OCCOCCCl`, the TGI is > 100 µM.

`CC(=O)OC1CC(OC2C(O)CC(OC3C(O)CC(OC4CCC5(C)C(CCC6C5CC(O)C5(C)C(C7=CC(=O)OC7)CCC65O)C4)OC3C)OC2C)OC(C)C1OC1OC(CO)C(O)C(O)C1O` (stereo not given) returned a TGI of 0.519 µM.

The molecule `O=[N+]([O-])c1cccc(-c2csc(NNC3=NC/C(=C/c4ccc5c(c4)OCO5)S3)n2)c1` yielded a TGI of 29.2 µM.
